Entries after “also recorded” stand apart in the source; their conditions may differ. Peptide text beside a SMILES is read from it.
Tests used:
Type in all cases: in vivo
male C57BL/6J mice [1] = experiment: Novel object recognition (NOR), acute drug treatment / acute ketamine-induced deficit (Example 1); conditions: for discrimination index (DI) / NOR deficit: Example 1, FIG. 1; for preference for novel versus familiar object (exploration time), retention trial: Example 1
Protocol: (§1) Three cohorts of male C57BL/6J mice (2½-3 month old, Jackson, Mass., USA), N=40, 45, and 48 were used in Examples 1, 2, 3 respectively. Mice were group housed (five/cage) in a controlled environment held at 21±2° C. and 50±15% relative humidity with a 14:10 h light-dark period (lights on: 05:00 am). All experiments were conducted during the light phase. Food and water were available ad libitum. The mice were habituated to the colony upon arrival for a week, during which time, they were not handled. All experiments were conducted in accordance with Institutional Animal Care and Use Committee of Northwestern University, Chicago.
(§2) Rapastinel was obtained from SAI Life Sciences (India). PCP was a generous gift from National Institute of Drug Abuse. Ketamine was purchased from Sigma Aldrich (St. Louis, Mo.). Lurasidone was provided by Sumitomo Dainippon Pharma Co., Ltd. (Osaka, Japan). Rapastinel, PCP, and ketamine were dissolved in 0.9% sterile saline (Sal). PCP and ketamine were administered intraperitoneally (ip), at a volume of 10 mL/kg body weight. Rapastinel was given intravenously (iv). The dose of rapastinel (1.0 mg/kg) was chosen because it produced optimal enhancement in learning in both young adult and aged rats and in a trace eye blink conditioning task in rabbits. […] The dose for lurasidone (0.1 mg/kg) was chosen based on prior NOR studies in C57BL/6J mice which determined the effective dose of lurasidone to restore NOR in subchronic PCP-treated mice.
(§3) For acute drug treatments, rapastinel (1.0 mg/kg, iv), lurasidone (0.1 mg/kg, i.p.) or ketamine (30 mg/kg, ip) were administered 30 min prior to the acquisition trial of the NOR task (described below) to the subchronic ketamine or subchronic PCP-treated animals. For subchronic drug treatments, 7-10 mice/cohort were randomly assigned to Sal, PCP, or ketamine. The Sal-treated mice received 0.9% NaCl; the drug treatment groups received either PCP (10 mg/kg; ip), or ketamine (30 mg/kg; ip) twice daily for 7 days. This was followed by a 7 day washout period during which time, mice were left undisturbed in the home cage until initiation of habituation (see below).
(§4) NOR testing in mice was slightly modified from Hashimoto et al (Hashimoto K.; Fujita Y.; Shimizu E.; Iyo M. European Journal of Pharmacology 2005, 519:114-7). […] Similar observations were made when large objects were used. […] It was observed that C57BL/6J mice explored less when the duration of trials were 3 or 5. […] The NOR apparatus consisted of an open box made of Plexiglas (52 cm L; 52 cm W; 31 cm H) with white walls and a solid floor. The box was positioned approximately 30 cm above the floor, centered on a table such that the overhead lights could not provide a spatial cue. One day after the 7 day washout from subchronic drug treatment or Sal, mice were habituated to the empty NOR arena, as a group, for one hour, on each of three days prior to the acquisition trial. During the acquisition trial, the mice were allowed to explore two identical objects (e.g. A1 and A2) for 10 min. This was followed by a 24-hour inter-trial interval, after which the mice were returned to the home cage. During the retention trial, the mice were allowed to explore the familiar object (A) from the acquisition trial and a novel object (e.g. B). The location of the novel object in the retention trial was randomly assigned for each mouse tested using a pseudorandom schedule. […] Also, to avoid bias or olfactory trails, objects were used in triplicates, i.e. that the same object that was used in the acquisition trial was not presented in retention trial. Behavior was recorded on video for blind scoring of object exploration. Object exploration was defined as an animal licking, sniffing, or touching the object with the forepaws while sniffing. […] The discrimination index (DI) [(time spent exploring the novel object—time spent exploring the familiar object)/total exploration time] was then calculated for retention trials. […]

male C57BL/6J mice [2] = experiment: NOR in subchronic PCP-treated mice (Example 2); conditions: for preference for novel versus familiar object, retention trial: Example 2
Protocol: as §1, §2, §3
NOR testing in mice was slightly modified from Hashimoto et al (Hashimoto K.; Fujita Y.; Shimizu E.; Iyo M. European Journal of Pharmacology 2005, 519:114-7). […] Similar observations were made when large objects were used. […] It was observed that C57BL/6J mice explored less when the duration of trials were 3 or 5. […] The NOR apparatus consisted of an open box made of Plexiglas (52 cm L; 52 cm W; 31 cm H) with white walls and a solid floor. The box was positioned approximately 30 cm above the floor, centered on a table such that the overhead lights could not provide a spatial cue. One day after the 7 day washout from subchronic drug treatment or Sal, mice were habituated to the empty NOR arena, as a group, for one hour, on each of three days prior to the acquisition trial. During the acquisition trial, the mice were allowed to explore two identical objects (e.g. A1 and A2) for 10 min. This was followed by a 24-hour inter-trial interval, after which the mice were returned to the home cage. […] Behavior was recorded on video for blind scoring of object exploration. […] The discrimination index (DI) [(time spent exploring the novel object—time spent exploring the familiar object)/total exploration time] was then calculated for retention trials. […]

male C57BL/6J mice [3] = experiment: NOR in subchronic ketamine-treated mice (Examples 2 and 3)
Protocol: as §1, §2, §3, §4

[4] = acute drug plus sal, rapastinel 1.0 mg/kg, ketamine 30 mg/kg
[5] = acute drug plus sal, 30 min prior to acquisition trial, rapastinel 1.0 mg/kg iv, ketamine 30 mg/kg ip

Row | SMILES | discrimination index (DI) / NOR deficit (male C57BL/6J mice [1]; [4]) | discrimination index (DI) / NOR deficit (male C57BL/6J mice [1]; rapastinel 1.0 mg/kg plus acute ketamine 30 mg/kg) | discrimination index (DI) / NOR deficit (male C57BL/6J mice [1]; rapastinel 1.0 mg/kg plus acute ketamine 30 mg/kg, listed as Rap) | preference for novel versus familiar object (exploration time), retention trial (male C57BL/6J mice [1]; [5]) | preference for novel versus familiar object (exploration time), retention trial (male C57BL/6J mice [1]; rapastinel 1.0 mg/kg prior to acute ketamine 30 mg/kg) | discrimination index (DI) / NOR deficit (male C57BL/6J mice [2]; Example 2, FIG. 2, acute rapastinel 1.0 mg/kg in subchronic PCP-treated mice) | discrimination index (DI) / NOR deficit (male C57BL/6J mice [2]; Example 2, FIG. 2, acute rapastinel 1.0 mg/kg in subchronic PCP-treated mice, listed as rap) | preference for novel versus familiar object, retention trial (male C57BL/6J mice [2]; acute rapastinel 1.0 mg/kg in subchronic PCP-treated mice) | discrimination index (DI) / NOR deficit (male C57BL/6J mice [3]; Example 2, FIG. 2, acute rapastinel 1.0 mg/kg in subchronic ketamine-treated mice) | discrimination index (DI) / NOR deficit (male C57BL/6J mice [3]; Example 2, FIG. 2, acute rapastinel 1.0 mg/kg in subchronic ketamine-treated mice, listed as rap) | preference for novel versus familiar object, retention trial (male C57BL/6J mice [3]; Example 2, acute rapastinel 1.0 mg/kg in subchronic ketamine-treated mice) | discrimination index (DI) / NOR deficit (male C57BL/6J mice [3]; Example 3, FIG. 3, subchronic ketamine-treated mice given sub-effective dose rapastinel 0.3 mg/kg and/or sub-effective dose lurasidone 0.1 mg/kg) | preference for novel versus familiar object, retention trial (male C57BL/6J mice [3]; Example 3, subchronic ketamine-treated mice given sub-effective dose rapastinel 0.3 mg/kg and/or sub-effective dose lurasidone 0.1 mg/kg) | discrimination index (DI) (male C57BL/6J mice [2]; Example 2, FIG. 2, subchronic PCP alone, compared to sal plus sal) | preference for novel versus familiar object, retention trial (male C57BL/6J mice [2]; subchronic PCP 10 mg/kg ip twice daily 7 days, 7 day washout) | discrimination index (DI) (male C57BL/6J mice [3]; Example 2, FIG. 2, subchronic ketamine alone, compared to sal plus sal) | preference for novel versus familiar object, retention trial (male C57BL/6J mice [3]; Example 2, subchronic ketamine 30 mg/kg ip twice daily 7 days, 7 day washout) | discrimination index (DI) (male C57BL/6J mice [3]; Example 3, FIG. 3, subchronic ketamine plus sal, compared to saline controls) | preference for novel versus familiar object, retention trial (male C57BL/6J mice [3]; Example 3, subchronic ketamine alone)
1 | CC(O)C(N)C(=O)N1CCCC1C(=O)N1CCCC1C(=O)NC(C(N)=O)C(C)O (stereo not drawn) [rapastinel, Rapastinel] (H-TPPT-NH2; configuration not given here) | did not induce NOR deficit | significantly prevented the acute ketamine-induced decrease in DI | significantly prevented the ket-induced NOR deficit | showed a clear preference for the novel compared to the familiar object | showed clear preference for the novel compared to the familiar object | significantly increased | significantly reversed | explored the novel object significantly more compared to the familiar object | significantly increased | significantly reversed | explored the novel object significantly more compared to the familiar object | neither drug above at these doses was effective; also recorded: significant reductions in the DI | abolished |  |  |  |  |  | 
2 | c1ccc(C2(N3CCCCC3)CCCCC2)cc1 [PCP, reference compound] |  |  |  |  |  |  |  |  |  |  |  |  |  | significantly reduced | abolished |  |  |  | 
3 | CNC1(c2ccccc2Cl)CCCCC1=O (stereo not drawn) [ketamine, Ketamine, reference compound] | induced a significant NOR deficit; also recorded: significantly reduced |  |  | abolished |  |  |  |  |  |  |  |  |  |  |  | significantly reduced | abolished | significant reductions in the DI | abolished
